Consider two compounds from patent US20260216093A1, “COMPOSITIONS AND METHODS FOR ENHANCED DRUG LOADING INTO LIPID-BASED CARRIERS” (UNIVERSITY OF NOTRE DAME DU LAC, priority 2023, published 2026).

The subject of assay [1] is Human hepatocellular carcinoma cells (HepG2). In words: CCK-8 cell proliferation assay with Exo-Dox. The format is cell-based. The settings on record: 24 h. On the procedure: (§1) Cell viability was assessed using a Cell Counting Kit-8 (CCK-8 assay, Enzo). In brief, 3T3 and HepG2 cells were seeded into a 96-well flat culture plate (Corning). After being cultured overnight, the cells were washed with FBS-free EMEM and incubated with a specific concentration of sEV and exosomal relative in FBS-free medium at 37° C. for 12, 24, 36, or 48 h. The cells were then washed three times with sterilized PBS and incubated with fresh medium containing 10% FBS overnight. The cells were then washed with PBS, and FBS-free EMEM […] before adding assay reagent. After incubation for 20 min at 37° C., the cell proliferation and cytotoxicity were measured by absorbance at 460 nm. The background was measured by 3T3 and HepG2 cells cultured in FBS-free EMEM only.
(§2) The ability of Exo-Dox to inhibit cancer cell proliferation in vitro was then analyzed. Human hepatocellular carcinoma cells (HepG2) and cervical carcinoma cells (Hela) were treated with Exo-Dox for 24 h, while cells without treatment, treated with control sEVs, and D-Cys-GQDs mixed with free Dox are negative controls. Cell viability of all samples was measured by CCK-8 assay. […] Dox-loaded sEVs by sonication method were not included in the cell viability tests due to low yield of loaded sEVs that was caused by the damage of physical structure of sEVs by sonication (FIG. 17A-B).
(In general: Formazan colour is commonly taken as a measure of viable cells.)

The test system of assay [2] is cervical carcinoma cells (Hela). Description: CCK-8 cell proliferation assay with Exo-Dox. It counts as cell-based, human. Conditions: 24 h. On the procedure:
as §1, §2

Another assay addresses tau fibrils (Homo sapiens, UniProt P10636). Description: Tau biosensor seeding (propagation) assay. The format is cell-based. The settings on record: inhibitors added 1 h after tau fibrils; D-GQDs 0.1-0.8 μM, Qal:D-GQDs 10:1, 6:1, 3:1; bare Qal 1.5 μM to 9 μM. As for the experimental part: To study the effect of Qal-D-GQD-Exo on tau propagation, a tau biosensor seeding assay (FIG. 35) was used to investigate whether the Qal-D-GQD-Exo could block the cellular transmission of exogeneous mature tau fibrils using three different ratios of Qal to D-GQDs (10:1, 6:1, and 3:1) and concentrations of D-GQDs at 0.8, 0.4, 0.2, and 0.1 μM.

tau fibrils, sequence (P10636 whole entry): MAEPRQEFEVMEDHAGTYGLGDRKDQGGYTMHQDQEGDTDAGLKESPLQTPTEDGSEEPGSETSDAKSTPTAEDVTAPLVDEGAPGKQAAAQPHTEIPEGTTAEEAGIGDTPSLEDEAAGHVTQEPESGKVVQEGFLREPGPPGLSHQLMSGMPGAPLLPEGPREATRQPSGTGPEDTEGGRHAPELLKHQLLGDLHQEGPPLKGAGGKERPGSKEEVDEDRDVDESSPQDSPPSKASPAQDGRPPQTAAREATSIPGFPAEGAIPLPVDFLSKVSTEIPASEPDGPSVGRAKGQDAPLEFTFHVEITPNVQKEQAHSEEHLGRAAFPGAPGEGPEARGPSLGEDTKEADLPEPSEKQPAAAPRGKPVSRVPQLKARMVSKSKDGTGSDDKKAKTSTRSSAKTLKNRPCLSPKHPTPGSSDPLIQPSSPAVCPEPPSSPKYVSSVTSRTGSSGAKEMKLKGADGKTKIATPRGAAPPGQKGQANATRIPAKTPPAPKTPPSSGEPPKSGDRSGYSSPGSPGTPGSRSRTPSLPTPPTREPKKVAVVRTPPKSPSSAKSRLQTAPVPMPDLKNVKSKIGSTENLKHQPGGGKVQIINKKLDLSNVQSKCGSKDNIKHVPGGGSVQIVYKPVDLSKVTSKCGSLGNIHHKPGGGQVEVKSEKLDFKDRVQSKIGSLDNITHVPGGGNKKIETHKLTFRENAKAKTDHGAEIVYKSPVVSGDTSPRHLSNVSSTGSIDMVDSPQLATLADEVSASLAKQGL

`COc1cccc2c1C(=O)c1c(O)c3c(c(O)c1C2=O)C[C@@](O)(C(=O)CO)C[C@@H]3O[C@H]1C[C@H](N)[C@H](O)[C@H](C)O1` [free Dox, Doxorubicin]: the “inhibition of cell proliferation” value in assay [1] came to 28.3±5.2%; in assay [2], 27.7±5.0%. Take “Qal: tau-specific N-amino peptide (NAP), amino acid sequence CGTHKLTFRASHAVQIVYKGC (SEQ ID NO: 2)”: the “inhibition of intracellular tau aggregation, at most” value with tau fibrils is reported as “did not show any inhibitory efficiency”.
